Measurements from article PMC5011342, “A high throughput drug screening assay to identify compounds that promote oligodendrocyte differentiation using acutely dissociated and purified oligodendrocyte precursor cells” (BMC Research Notes, 2016).
Where “and” joins values, the source holds several entries; their conditions need not be identical. Equal values may be shown once. Where a name gives a salt, the structure may show the parent alone. Read-outs that look alike come from different tables or passages of the source. Starred links: 1 amine or outer side, 2 acyl side, 3 side chain; linkers in the order of their positions; H or OH if unused. Positions of bridges follow the written chain, without caps; N, C: chain ends. Non-standard residues stand in square brackets, D forms with d. Residues, ends and D or L forms follow the SMILES beside them. Chains are numbered I, II in the order given. Actinocin(9to1) = Cc1c2oc3c(C)ccc(C(=O)[*:1])c3nc-2c(C(=O)[*:2])c(N)c1=O; NMeV = CN[C@H](C(=O)O)C(C)C; Sar = CNCC(=O)O

How the values were obtained:
[1] = tested on: acutely dissociated and purified rat OPCs; assay: Acute OL differentiation assay (MBP expression/cell, immunofluorescent image quantification); format: cell-based
Description: In order to identify compounds with the potential to promote OL differentiation in vivo and thereby enhance remyelination, we first wanted to establish an in vitro assay system that would closely mimic conditions in vivo. To do this, we started by using OPCs acutely isolated from postnatal day 6–7 (P6–7) rat brains by O4 immunopanning. […] OPCs were plated directly onto a biological substrate (PDL/laminin) in 96-well view plates at moderate density to allow for sufficient room to expand processes during differentiation. We plated cells in serum-free medium lacking OPC mitogens (no PDGF or FGF) to allow a basal level of OL differentiation to commence, and as a positive control added thyroid hormone (T3, 40 ng/ml) to accelerate differentiation (Fig. 1, flow scheme).
Fig. 1 Flow scheme of the acute OL differentiation assay. a Purified oligodendrocyte precursor cells (OPCs) were cultured from P7 rat cortex and plated into PDL/laminin pre-coated 96-well plates. b One hour later test compounds were added. c OPC cultures with compound were maintained in culture for an additional 4 days. d On the 5th day with compound, cells were fixed and immunostained with anti-MBP antibodies and DAPI. e Images were acquired with automated fluorescence microscopy and scored phenotypically for OL differentiation (see “Methods” section)
To quantify the extent of OL differentiation occurring in treatment conditions, we measured the overall amount of MBP expression/cell (see “Methods” section). Figure 2a depicts the mask created over MBP staining under which the MBP expression was quantified. […]
All animal work was carried out in strict accordance with the recommendations in the Guide for the Care and Use of Laboratory Animals of the National Institutes of Health. The protocol was approved by the Institutional Use and Care and Use Committee at the Molecular Medicine Research Institute (Sunnyvale, CA). Animals used for OPC isolation in these studies were euthanized by decapitation. OPCs from brains of P6-P7 Sprague–Dawley rat pups (Charles River, Wilmington, MA, USA) were enriched by immunopanning as previously described (Dugas et al. 2006). Briefly, single cell suspensions were obtained from papain-digested neonatal brains and depleted of mature glial cells by successive panning with RAN-2- and GalC-coated plates, followed by enrichment for OPCs using O4-coated plates. OPCs were plated in differentiation media (DMEM, 100 U/ml Penicillin/100 µg/ml streptomycin, 2 mM L-glutamine, 1 mM Na pyruvate, 5 µg/ml insulin, 5 µg/ml N-acetyl-L-cysteine, 1× trace elements B,10 ng/ml d-Biotin, 100 µg/ml BSA, 100 µg/ml apo-transferrin, 16 µg/ml putrescine, 60 ng/ml progesterone, 40 ng/ml sodium selenite 5 ng/ml forskolin, 10 ng/ml CNTF, 1 ng/ml NT-3).
Acutely enriched OPCs were plated in differentiation media at 5000 cells/well into PDL/laminin coated 96-well view plates and centrifuged at 200×g to facilitate cell attachment, survival, and even distribution of OPCs. OPCs were pre-incubated for 1–2 h at 37 °C in 10 % CO2, followed by the addition of test compounds in quadruplicate. Controls were added in eight replicate wells, negative control = 0.1 % DMSO; positive control = 40 ng/ml T3. The day of OPC plating was considered DIV0. On DIV4, cells were fixed, immunostained for myelin basic protein (MBP) expression, imaged and quantified as described below.

[2] = tested on: expanded OPCs; assay: cells; conditions: for viability at 0.1 µM / viability at 1 µM / viability at 10 µM: Rattus norvegicus, 72 h
Description: Having established a consistent assay for measuring OL differentiation in vitro, the next step was to utilize this assay to assess the ability of a wide array of compounds to promote OL differentiation. Prior to library screening, we first established the maximum non-toxic dose of each compound in the library. […] Therefore, we added each compound in the NIH clinical collection (NCC) library to OPCs at 10, 1, and 0.1 µM concentrations. Three days later, we assessed viability of the treated cells by measuring AlamarBlue fluorescence, a measure of cell viability (see “Methods” section). […] Appropriately, we established three sets of screening concentrations for library compounds: non-toxic compounds were tested at 10 and 2 µM, slightly toxic compounds (only toxic at 10 µM) were tested at 2 and 0.4 µM, and very toxic compounds were tested at 0.4 and 0.08 µM.
OPCs were expanded in vitro by seeding into PDL-coated tissue culture flasks at 1000–2000 cells/cm^2 in differentiation media supplemented with 10 ng/ml PDGF-AA. Proliferating OPCs were fed every 2–3 days and supplemented with 2–3× concentration of PDGF as needed to prevent OPC differentiation. After 6–7 days of proliferation, OPCs were harvested by trypsinization, plated into PDL-coated 96-well Falcon plates and centrifuged at 200×g to facilitate cell attachment, survival, and even distribution of cells. Expanded OPCs were seeded in differentiation media at 10,000 cells/well and incubated for 2 h at 37 °C, 10 % CO2 prior to addition of compounds. The NCC library was diluted and added to cells at 10, 1, and 0.1 µM; each concentration was tested in quadruplicate. As a positive control for the induction of toxicity, 5 ng/ml tunicamycin was added to 8 wells in each plate. Three days later, a 1:10 dilution of alamarBlue® (AB) was added to each well and cells were incubated 4 h at 37 °C, 10 % CO2. AB fluorescence was measured using a PerkinElmer Victor II fluorescence microplate reader (PerkinElmer, Waltham, MA) with 560 nm excitation/590 nm emission filters. For library screening, the highest concentration of each compound was adjusted to a minimally toxic concentration based on this toxicity data. Compounds were additionally tested at a second concentration that was 1/5th of the top concentration. The final concentration of DMSO in each well was 0.1 %.

[3] = alamarBlue viability of expanded OPCs, compound at 0.1 µM, relative to DMSO control
[4] = alamarBlue viability of expanded OPCs, compound at 1 µM, relative to DMSO control
[5] = alamarBlue viability of expanded OPCs, compound at 10 µM, relative to DMSO control
[6] = read-out: 0.1 µM (% DMSO), alamarBlue viability of expanded OPCs, compound at 0.1 µM, sheet All Tox data
[7] = read-out: 1 µM (% DMSO), alamarBlue viability of expanded OPCs, compound at 1 µM, sheet All Tox data
[8] = read-out: 10 µM (% DMSO), alamarBlue viability of expanded OPCs, compound at 10 µM, sheet All Tox data
[9] = read-out: 0.1 µM (% DMSO), alamarBlue viability, NCC library compound at 0.1 µM, sheet "All Tox data"
[10] = read-out: 1 µM (% DMSO), alamarBlue viability, NCC library compound at 1 µM, sheet "All Tox data"
[11] = read-out: 10 µM (% DMSO), alamarBlue viability, NCC library compound at 10 µM, sheet "All Tox data"

## Cc1c(C(=O)NN2CCCCC2)nn(-c2ccc(Cl)cc2Cl)c1-c1ccc(I)cc1 [AM 251]
[1]
  0.4 uM (% Quet): -5.0 % Quet
  2 uM (% Quet): -199.0 % Quet

## COc1cccc2c1C(=O)c1c(O)c3c(c(O)c1C2=O)C[C@@](O)(C(=O)CO)C[C@@H]3O[C@H]1C[C@H](N)[C@H](O)[C@H](C)O1 [Adriamycin]
[2]; [3]
  0.1 µM (% DMSO): 9.9 % DMSO
[2]; alamarBlue viability of expanded OPCs, compound at 0.1 µM, sheet All Tox data
  0.1 µM (% DMSO): 84.2 % DMSO
[2]; [4]
  1 µM (% DMSO): 9.6 % DMSO
[2]; alamarBlue viability of expanded OPCs, compound at 1 µM, sheet All Tox data
  1 µM (% DMSO): 11.2 % DMSO
[2]; [5]
  10 µM (% DMSO): 7.8 % DMSO
[2]; alamarBlue viability of expanded OPCs, compound at 10 µM, sheet All Tox data
  10 µM (% DMSO): 11.9 % DMSO

## Nc1ncnc2c1ncn2[C@@H]1O[C@H](CO)C[C@H]1O [Cordycepin]
[2]; [6]
  viability at 0.1 µM: 71.9%
[2]; [7]
  viability at 1 µM: 38.3%
[2]; [8]
  viability at 10 µM: 16%

## C[C@]12CCC(=O)C=C1CC[C@@H]1[C@@H]2C(=O)C[C@@]2(C)[C@H]1CC[C@]2(O)C(=O)CO [Cortisone]
[2]; alamarBlue viability, NCC library compound at 0.1 µM, sheet "All Tox data"
  0.1 µM (% DMSO): 99.5 % DMSO
[2]; alamarBlue viability, NCC library compound at 1 µM, sheet "All Tox data"
  1 µM (% DMSO): 105.4 % DMSO
[2]; alamarBlue viability, NCC library compound at 10 µM, sheet "All Tox data"
  10 µM (% DMSO): 105.4 % DMSO

## Cc1c2oc3c(C)ccc(C(=O)N[C@@H]4C(=O)N[C@H](C(C)C)C(=O)N5CCC[C@H]5C(=O)N(C)CC(=O)N(C)[C@@H](C(C)C)C(=O)O[C@@H]4C)c3nc-2c(C(=O)N[C@@H]2C(=O)N[C@H](C(C)C)C(=O)N3CCC[C@H]3C(=O)N(C)CC(=O)N(C)[C@@H](C(C)C)C(=O)O[C@@H]2C)c(N)c1=O [Dactinomycin] (I: T[dV]P[Sar][NMeV] / II: T[dV]P[Sar][NMeV]; ester I:1-I:C, II:1-II:C; linker I:N-II:N via Actinocin(9to1))
[2]; read-out: 0.1 µM (% DMSO)
  viability at 0.1 µM: 10.2%
[2]; read-out: 1 µM (% DMSO)
  viability at 1 µM: 11.1%
[2]; read-out: 10 µM (% DMSO)
  viability at 10 µM: 12.2%

## COc1cccc2c1C(=O)c1c(O)c3c(c(O)c1C2=O)C[C@@](O)(C(=O)CO)C[C@@H]3O[C@H]1C[C@H](N)[C@H](O)[C@H](C)O1 [Doxorubicin]
[2]; [6]
  viability at 0.1 µM: 86.2%
[2]; [7]
  viability at 1 µM: 11%
[2]; [8]
  viability at 10 µM: 13.4%

## C[C@]12CCC(=O)C=C1CC[C@@H]1[C@@H]2[C@@H](O)C[C@@]2(C)[C@H]1CC[C@]2(O)C(=O)CO [Hydrocortisone]
[2]; [3]
  0.1 µM (% DMSO): 122.3 % DMSO and 114.4 % DMSO
[2]; [4]
  1 µM (% DMSO): 115.5 % DMSO and 108.5 % DMSO
[2]; [5]
  10 µM (% DMSO): 113.8 % DMSO and 107.0 % DMSO

## CC(=O)[C@]1(O)Cc2c(O)c3c(c(O)c2[C@@H](O[C@H]2C[C@H](N)[C@H](O)[C@H](C)O2)C1)C(=O)c1ccccc1C3=O [Idarubicin]
[2]; [6]
  viability at 0.1 µM: 13.9%
[2]; [7]
  viability at 1 µM: 10.9%
[2]; [8]
  viability at 10 µM: 11.4%

## Cc1ccc(NC(=O)c2ccc(CN3CCN(C)CC3)cc2)cc1Nc1nccc(-c2cccnc2)n1 [Imatinib mesylate]
[2]; [9]
  viability at 0.1 µM: 93.7%
[2]; [10]
  viability at 1 µM: 70.5%
[2]; [11]
  viability at 10 µM: 18%

## CN(C)CCCN1c2ccccc2CCc2ccccc21 [Imipramine]
[2]; [9]
  viability at 0.1 µM: 79.4%
[2]; [10]
  viability at 1 µM: 61.9%
[2]; [11]
  viability at 10 µM: 30.6%

## O=C1c2c(O)ccc(O)c2C(=O)c2c(NCCNCCO)ccc(NCCNCCO)c21 [Mitoxantrone]
[2]; [3]
  0.1 µM (% DMSO): 9.7 % DMSO
[2]; [4]
  1 µM (% DMSO): 9.0 % DMSO
[2]; [5]
  10 µM (% DMSO): 7.8 % DMSO
